Measurements from ChEMBL document CHEMBL1201862, “PubChem BioAssay data set” (2004).
pEC50: −log10 of the molar value. Activity calls are given as the source filed them.

Experiments:
[1] = target: Intestinal-type alkaline phosphatase (Mus musculus, UniProt P24822); assay: mouse intestinal alkaline phosphatase activators, dose response, biochemical, luminescence, uHTS hits (AID 488783); type: functional
[2] = target: T1, Caspase-6 (Homo sapiens, UniProt P55212); assay: human caspase-6 inhibitors, dose response, biochemical, VEID-R110 fluorescence, cherry-pick (AID 720632)
T1 sequence (P55212 whole entry): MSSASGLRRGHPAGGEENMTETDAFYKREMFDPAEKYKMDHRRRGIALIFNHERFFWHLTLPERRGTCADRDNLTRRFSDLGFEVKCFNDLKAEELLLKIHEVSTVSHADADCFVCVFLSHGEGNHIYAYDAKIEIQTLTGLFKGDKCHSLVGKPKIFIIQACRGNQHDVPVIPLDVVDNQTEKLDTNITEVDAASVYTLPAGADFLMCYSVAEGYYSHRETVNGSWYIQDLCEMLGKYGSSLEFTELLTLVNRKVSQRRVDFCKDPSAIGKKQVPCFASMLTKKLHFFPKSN

[3] = target: Intestinal-type alkaline phosphatase (Homo sapiens, UniProt P09923); assay: activation of human intestinal alkaline phosphatase – biochemical, dose response (AID 488873); type: functional
[4] = target: T2, Alkaline phosphatase, tissue-nonspecific isozyme (Homo sapiens, UniProt P05186); assay: TNAP enzyme activators, dose response, selectivity assay for mouse IAP activator project, biochemical, TNAP isozyme, mouse IAP uHTS hits (AID 488880); type: functional
T2 sequence (P05186 whole entry): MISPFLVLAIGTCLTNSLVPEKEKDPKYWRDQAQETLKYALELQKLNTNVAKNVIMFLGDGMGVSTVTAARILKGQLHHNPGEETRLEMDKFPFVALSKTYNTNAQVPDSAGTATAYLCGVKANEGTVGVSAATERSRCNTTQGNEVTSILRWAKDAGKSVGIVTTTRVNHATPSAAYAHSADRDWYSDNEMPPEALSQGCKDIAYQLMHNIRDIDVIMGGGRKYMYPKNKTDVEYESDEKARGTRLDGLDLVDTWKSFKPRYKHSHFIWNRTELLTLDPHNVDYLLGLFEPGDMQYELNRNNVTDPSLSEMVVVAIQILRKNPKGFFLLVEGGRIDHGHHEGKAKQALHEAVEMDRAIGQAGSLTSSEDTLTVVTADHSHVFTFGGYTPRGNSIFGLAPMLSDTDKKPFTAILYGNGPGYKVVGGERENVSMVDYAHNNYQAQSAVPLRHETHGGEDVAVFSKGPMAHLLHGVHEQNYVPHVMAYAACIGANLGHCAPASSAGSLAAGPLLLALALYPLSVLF

[5] = target: T3, Kappa-type opioid receptor (Homo sapiens, UniProt P41145); type: functional
[6] = target: T4, Mu-type opioid receptor (Homo sapiens, UniProt P35372); assay: MOR antagonists, SAR follow-up, image-based (AID 2420); type: functional;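 also: compounds added before stimulation of receptor with agonist DAMGO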
[7] = target: T5, Delta-type opioid receptor (Homo sapiens, UniProt P41143); assay: DOR agonists, SAR follow-up, image-based (AID 2370); type: functional
[8] = target: T4, Mu-type opioid receptor; assay: HTS Image-Based Screen for Agonists of the MOR Receptor. [Related pubchem assays (depositor defined):AID1777, AID1785, AID1786, AID2133]; type: functional
[9] = target: T3, Kappa-type opioid receptor; assay: SAR analysis of small molecule agonists of the kappa opioid receptor via a luminescent beta-arrestin assay. [Related pubchem assays (depositor defined):AID1777, AID1786, AID1966, AID2133, AID2136, AID2348, AID2352, AID2357, AID2359, AID2370, AID2420, AID2478, AID2491, AID2492, AID2493, AID2497, AID2498, AID2500, AID449737, AID488822, AID488842]; type: functional
[10] = target: T5, Delta-type opioid receptor; assay: HTS Image-Based Screen for Agonists of the DOR Receptor. [Related pubchem assays (depositor defined):AID1777, AID1786, AID2133]; type: functional
[11] = target: T4, Mu-type opioid receptor; assay: MOR agonists by imaging, SAR follow-up, image-based (AID 2352); type: functional
[12] = target: T5, Delta-type opioid receptor; assay: HTS Image-Based Screen for Antagonists of the DOR Receptor. [Related pubchem assays (depositor defined):AID1777, AID1785, AID1786, AID2133]; type: functional
[13] = target: T5, Delta-type opioid receptor; assay: DOR antagonists, SAR follow-up, image-based (AID 2357); type: functional
[14] = target: T3, Kappa-type opioid receptor; assay: KOR agonist analogs, imaging readout, SAR follow-up, image-based (AID 2359); type: functional
[15] = target: T3, Kappa-type opioid receptor; assay: KOR antagonists by imaging, SAR follow-up, image-based (AID 2348); type: functional
[16] = target: T3, Kappa-type opioid receptor; type: functional; remark: listed apart in the source
[17] = target: Peroxisome proliferator-activated receptor alpha (Homo sapiens, UniProt Q07869); assay: Late stage assay provider counterscreen for partial agonists of the peroxisome proliferator-activated receptor gamma (PPARg): Luminescence-based cell-based dose response assay for partial agonists of the peroxisome proliferator-activated receptor alpha (PPARA). [Related pubchem assays (depositor defined):AID1051, AID1300, AID1319, AID1679, AID1808, AID504446, AID504447, AID504452, AID504453, AID631]; type: functional
[18] = target: T6, Peroxisome proliferator-activated receptor gamma (Homo sapiens, UniProt P37231); assay: PPARg ligand-binding domain binders, dose response, PPARg partial agonist project, biochemical, TR-FRET, LanthaScreen (AID 504446)
T6 sequence (P37231 whole entry): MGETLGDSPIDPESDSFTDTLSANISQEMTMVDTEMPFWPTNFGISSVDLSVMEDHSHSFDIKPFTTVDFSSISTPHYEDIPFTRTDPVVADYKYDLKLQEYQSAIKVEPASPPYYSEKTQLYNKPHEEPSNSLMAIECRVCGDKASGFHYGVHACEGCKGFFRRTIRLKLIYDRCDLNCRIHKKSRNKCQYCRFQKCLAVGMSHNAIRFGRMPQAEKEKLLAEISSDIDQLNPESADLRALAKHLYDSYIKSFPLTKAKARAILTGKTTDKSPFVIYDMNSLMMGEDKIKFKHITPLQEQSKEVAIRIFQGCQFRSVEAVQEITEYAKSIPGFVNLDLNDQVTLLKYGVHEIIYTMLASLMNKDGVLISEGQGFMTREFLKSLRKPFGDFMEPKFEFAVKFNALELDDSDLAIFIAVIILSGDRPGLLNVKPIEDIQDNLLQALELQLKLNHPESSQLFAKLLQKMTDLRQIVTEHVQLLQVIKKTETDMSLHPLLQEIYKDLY

[19] = target: T6, Peroxisome proliferator-activated receptor gamma; assay: PPARg partial agonists, dose response, cell-based, luminescence, assay provider (AID 504447); type: functional

T3 sequence (P41145 whole entry): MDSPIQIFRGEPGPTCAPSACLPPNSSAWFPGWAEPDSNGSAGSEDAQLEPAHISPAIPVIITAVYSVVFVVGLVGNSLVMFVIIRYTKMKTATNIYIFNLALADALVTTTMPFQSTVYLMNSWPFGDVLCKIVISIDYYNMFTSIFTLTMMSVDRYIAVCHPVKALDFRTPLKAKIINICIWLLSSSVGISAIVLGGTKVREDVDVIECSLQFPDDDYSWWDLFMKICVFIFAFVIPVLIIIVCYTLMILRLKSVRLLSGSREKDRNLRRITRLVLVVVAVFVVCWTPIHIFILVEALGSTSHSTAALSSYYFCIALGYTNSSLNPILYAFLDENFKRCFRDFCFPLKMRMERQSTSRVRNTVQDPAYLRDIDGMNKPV
T4 sequence (P35372 whole entry): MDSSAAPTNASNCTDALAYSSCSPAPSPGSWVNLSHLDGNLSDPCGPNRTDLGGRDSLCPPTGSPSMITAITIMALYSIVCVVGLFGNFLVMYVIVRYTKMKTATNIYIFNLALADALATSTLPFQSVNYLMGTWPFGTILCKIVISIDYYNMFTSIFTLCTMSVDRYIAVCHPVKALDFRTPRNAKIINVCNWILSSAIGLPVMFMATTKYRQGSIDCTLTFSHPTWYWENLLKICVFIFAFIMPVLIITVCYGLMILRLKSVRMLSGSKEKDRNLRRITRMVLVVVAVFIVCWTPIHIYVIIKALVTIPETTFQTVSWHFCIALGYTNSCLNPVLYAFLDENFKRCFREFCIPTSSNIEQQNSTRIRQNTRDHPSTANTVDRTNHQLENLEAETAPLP
T5 sequence (P41143 whole entry): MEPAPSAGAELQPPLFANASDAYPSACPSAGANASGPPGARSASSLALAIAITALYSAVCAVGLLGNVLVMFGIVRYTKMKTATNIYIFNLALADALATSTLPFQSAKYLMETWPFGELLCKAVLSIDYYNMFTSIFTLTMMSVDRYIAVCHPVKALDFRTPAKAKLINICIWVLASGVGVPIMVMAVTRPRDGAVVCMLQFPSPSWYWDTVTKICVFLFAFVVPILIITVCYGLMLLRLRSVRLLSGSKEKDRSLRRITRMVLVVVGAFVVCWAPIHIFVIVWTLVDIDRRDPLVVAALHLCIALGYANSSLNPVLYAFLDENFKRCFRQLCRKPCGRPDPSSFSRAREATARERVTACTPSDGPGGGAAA
Sequence of Peroxisome proliferator-activated receptor alpha (Q07869 whole entry, the tested form may be a part): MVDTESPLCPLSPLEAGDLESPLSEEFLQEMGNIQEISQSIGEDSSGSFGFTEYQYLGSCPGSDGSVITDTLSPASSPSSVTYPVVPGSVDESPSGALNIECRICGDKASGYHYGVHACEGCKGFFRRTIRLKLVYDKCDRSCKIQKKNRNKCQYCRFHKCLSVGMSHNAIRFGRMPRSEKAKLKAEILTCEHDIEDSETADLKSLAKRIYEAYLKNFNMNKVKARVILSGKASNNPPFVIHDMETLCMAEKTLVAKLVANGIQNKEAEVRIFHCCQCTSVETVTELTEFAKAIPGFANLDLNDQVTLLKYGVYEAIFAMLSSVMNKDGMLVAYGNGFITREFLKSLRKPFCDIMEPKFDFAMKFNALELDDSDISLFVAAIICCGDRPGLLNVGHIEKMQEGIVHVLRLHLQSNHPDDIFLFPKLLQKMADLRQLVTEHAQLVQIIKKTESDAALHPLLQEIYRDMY
Sequence of Intestinal-type alkaline phosphatase (Mus musculus, UniProt P24822) (P24822 whole entry): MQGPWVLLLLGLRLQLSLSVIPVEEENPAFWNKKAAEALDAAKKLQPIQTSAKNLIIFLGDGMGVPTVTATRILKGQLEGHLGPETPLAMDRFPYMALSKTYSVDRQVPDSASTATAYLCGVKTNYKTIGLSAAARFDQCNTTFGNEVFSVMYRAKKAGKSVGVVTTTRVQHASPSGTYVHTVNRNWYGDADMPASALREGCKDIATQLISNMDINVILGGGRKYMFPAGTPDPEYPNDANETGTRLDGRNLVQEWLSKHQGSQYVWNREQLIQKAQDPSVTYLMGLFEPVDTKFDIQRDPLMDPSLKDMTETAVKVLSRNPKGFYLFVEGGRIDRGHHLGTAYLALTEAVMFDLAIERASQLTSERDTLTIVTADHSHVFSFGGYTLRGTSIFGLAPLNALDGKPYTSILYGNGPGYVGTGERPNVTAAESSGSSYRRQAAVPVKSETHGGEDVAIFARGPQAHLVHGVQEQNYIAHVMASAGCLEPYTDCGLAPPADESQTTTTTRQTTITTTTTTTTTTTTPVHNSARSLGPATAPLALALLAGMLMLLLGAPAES
Sequence of Intestinal-type alkaline phosphatase (Homo sapiens, UniProt P09923) (P09923 whole entry): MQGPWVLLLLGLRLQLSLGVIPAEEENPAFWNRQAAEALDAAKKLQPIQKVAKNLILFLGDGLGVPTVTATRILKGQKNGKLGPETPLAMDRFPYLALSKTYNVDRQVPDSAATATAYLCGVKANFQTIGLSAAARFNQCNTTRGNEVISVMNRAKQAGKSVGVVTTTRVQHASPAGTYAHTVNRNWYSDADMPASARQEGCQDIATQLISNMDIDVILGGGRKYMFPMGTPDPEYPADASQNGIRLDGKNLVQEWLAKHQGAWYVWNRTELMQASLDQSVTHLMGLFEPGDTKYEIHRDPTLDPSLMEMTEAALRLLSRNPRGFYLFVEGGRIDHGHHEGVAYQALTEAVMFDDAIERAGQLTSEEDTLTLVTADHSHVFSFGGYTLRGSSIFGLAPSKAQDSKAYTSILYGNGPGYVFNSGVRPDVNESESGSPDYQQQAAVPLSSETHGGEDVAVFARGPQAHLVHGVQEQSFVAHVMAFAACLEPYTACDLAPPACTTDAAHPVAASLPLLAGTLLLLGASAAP

O=C(COC(=O)c1ccc(Br)o1)Nc1ncc([N+](=O)[O-])s1
EC50 [1]: 39.9 µM (active) | AC50 [2]: 8.5 µM (active) | EC50 [3]: 68.4 µM (active) | EC50 [4]: 85.8 µM (active)

C(=C\c1ccccc1)/CSc1nnc(-c2ccccn2)n1Cc1ccco1
pEC50 [5]: 5.28 | IC50 [6]: > 32 µM (inactive) | EC50 [7]: > 32 µM (inactive) | EC50 [8]: > 32 µM (inactive) | EC50 [9]: 2.22 µM (active) | EC50 [10]: > 32 µM (inactive) | EC50 [11]: > 32 µM (inactive) | IC50 [12]: > 32 µM (inactive) | IC50 [13]: > 32 µM (inactive) | EC50 [14]: 1.43 µM (active) | IC50 [15]: > 32 µM (inactive) | pEC50 [16]: 5.50

CCCCOC(=O)CCN1C(=O)/C(=C/c2ccccc2)SC1=S
EC50 [17]: 0.12 µM (active) | IC50 [18]: 3.2 µM (active) | EC50 [19]: 3.2 µM (active)
